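Where inhibition never reached the appropriate level, the endpoint shown equals the highest concentration tested. Otherwise, values were interpolated linearly from a five-concentration, 48-hour dose response in 96-well plates. Definition used: TGI = concentration required for complete inhibition of growth.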
How the values were obtained:
Experiment in all cases: NCI anticancer screen, dose series, 48 h
HT29 colon = system: HT29 colon
T-47D breast = system: T-47D breast
SK-MEL-2 melanoma = system: SK-MEL-2 melanoma
HOP-62 NSCLC = system: HOP-62 NSCLC
PC-3 prostate = system: PC-3 prostate
RXF 393 renal = system: RXF 393 renal
RPMI-8226 leukemia = system: RPMI-8226 leukemia
OVCAR-3 ovarian = system: OVCAR-3 ovarian
HS 578T breast = system: HS 578T breast
M14 melanoma = system: M14 melanoma
A498 renal = system: A498 renal
786-0 renal = system: 786-0 renal
A549 NSCLC = system: A549 NSCLC
HCT-15 colon = system: HCT-15 colon
LOX IMVI melanoma = system: LOX IMVI melanoma
OVCAR-5 ovarian = system: OVCAR-5 ovarian
ACHN renal = system: ACHN renal
NCI/ADR-RES ovarian = system: NCI/ADR-RES ovarian
CCRF-CEM leukemia = system: CCRF-CEM leukemia
SF-268 CNS = system: SF-268 CNS
MDA-MB-231 breast = system: MDA-MB-231 breast
NCI-H23 lung = system: NCI-H23 lung
DU-145 prostate = system: DU-145 prostate
UACC-62 melanoma = system: UACC-62 melanoma
UACC-257 melanoma = system: UACC-257 melanoma
KM12 colon = system: KM12 colon
SF-295 CNS = system: SF-295 CNS
HL-60(TB) leukemia = system: HL-60(TB) leukemia
CAKI-1 renal = system: CAKI-1 renal
HOP-92 NSCLC = system: HOP-92 NSCLC
SR leukemia = system: SR leukemia
NCI-H226 lung = system: NCI-H226 lung
SW-620 colon = system: SW-620 colon
HCT-116 colon = system: HCT-116 colon
MDA-N = system: MDA-N
MOLT-4 leukemia = system: MOLT-4 leukemia
MDA-MB-435 = system: MDA-MB-435
SK-MEL-28 melanoma = system: SK-MEL-28 melanoma
K-562 leukemia = system: K-562 leukemia
SN12C renal = system: SN12C renal
NCI-H522 lung = system: NCI-H522 lung
BT-549 breast = system: BT-549 breast
EKVX NSCLC = system: EKVX NSCLC
IGROV1 ovarian = system: IGROV1 ovarian
SK-MEL-5 melanoma = system: SK-MEL-5 melanoma
COLO 205 colon = system: COLO 205 colon
MCF7 breast = system: MCF7 breast
U251 CNS = system: U251 CNS
TK-10 renal = system: TK-10 renal
SNB-75 CNS = system: SNB-75 CNS
SF-539 CNS = system: SF-539 CNS
NCI-H460 lung = system: NCI-H460 lung
SK-OV-3 ovarian = system: SK-OV-3 ovarian
OVCAR-8 ovarian = system: OVCAR-8 ovarian
OVCAR-4 ovarian = system: OVCAR-4 ovarian
SNB-19 CNS = system: SNB-19 CNS
MALME-3M melanoma = system: MALME-3M melanoma
HCC-2998 colon = system: HCC-2998 colon
UO-31 renal = system: UO-31 renal

Measured: TGI

O=S(=O)(CC(O)C(Cl)(Cl)Cl)NNc1ccccc1 (centres undefined)
not listed: HCC-2998 colon | UO-31 renal
> 100 µM: all other assays above

CC(=O)OCC1OC(N2C(=O)CC(N)=Nc3ccccc32)C(OC(C)=O)C(OC(C)=O)C1OC(C)=O (centres undefined)
95.1 µM: RXF 393 renal
46.8 µM: SK-MEL-5 melanoma
57.3 µM: MOLT-4 leukemia
82.2 µM: T-47D breast
67.5 µM: SF-539 CNS
49.8 µM: RPMI-8226 leukemia
29.7 µM: COLO 205 colon
not listed: NCI-H226 lung | NCI-H522 lung
> 100 µM: all other assays above

Cc1ccc(O)c(-c2cc(-c3ccccc3)nc(/N=C\c3ccccc3)n2)c1
13.5 µM: UO-31 renal
40.9 µM: SNB-75 CNS
58.8 µM: HOP-62 NSCLC
85.6 µM: NCI/ADR-RES ovarian
29.8 µM: ACHN renal
44 µM: IGROV1 ovarian
19.2 µM: BT-549 breast
79.8 µM: HS 578T breast
81.5 µM: NCI-H23 lung
48.6 µM: UACC-62 melanoma
not listed: RXF 393 renal | RPMI-8226 leukemia | A498 renal | CAKI-1 renal | COLO 205 colon | SK-OV-3 ovarian | HCC-2998 colon
> 100 µM: all other assays above

CSc1ncc2c(C#N)c3ccccn3c(=O)c2n1
not listed: NCI-H522 lung
> 100 µM: all other assays above

— PubChem BioAssay (NCI)
